From ChEMBL document CHEMBL1201862, “PubChem BioAssay data set” (2004)
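Exposure lasted 48 hours, with cells grown in 96-well plates and compounds tested at five concentrations. GI50 marks 50% less growth.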 The source made the active and inactive calls. No stated cut-off is given here; in the data, active = GI50 up to about 1.1 µM and inactive = higher.

What was measured:
Test in all cases: growth of human tumour cells (NCI), 48 h
[1] = test system: A498
[2] = test system: A549
[3] = test system: CAKI-1
[4] = test system: COLO 205
[5] = test system: HCT-15
[6] = test system: IGROV-1
[7] = test system: LOX IMVI
[8] = test system: Malme-3M
[9] = test system: NCI-H460
[10] = test system: OVCAR-4
[11] = test system: OVCAR-5
[12] = test system: PC-3
[13] = test system: RPMI-8226
[14] = test system: SF-268
[15] = test system: SF-295
[16] = test system: SR
[17] = test system: UACC-62
[18] = test system: NCI-H23
[19] = test system: HCC 2998

Structure (SMILES) | GI50 [1] | GI50 [2] | GI50 [3] | GI50 [4] | GI50 [5] [µM] | GI50 [6] | GI50 [7] | GI50 [8] | GI50 [9] | GI50 [10] | GI50 [11] | GI50 [12] | GI50 [13] | GI50 [14] | GI50 [15] | GI50 [16] | GI50 [17] | GI50 [18] | GI50 [19]
O=C1Nc2ccccc2S/C1=C\c1ccccc1C(F)(F)F | > 10 µM (inactive) | > 100 µM (inactive) | 68.9 µM (inactive) | > 100 µM (inactive) | > 100 | 29 µM (inactive) | > 100 µM (inactive) | > 100 µM (inactive) | 94.6 µM (inactive) | 18.8 µM (inactive) | > 100 µM (inactive) | > 100 µM (inactive) | 64.1 µM (inactive) | > 100 µM (inactive) | > 100 µM (inactive) | > 100 µM (inactive) | > 100 µM (inactive) | – | –
COc1cccc2cc(C(=O)Nc3ccccc3)c(=N)oc12 | > 100 µM (inactive) | > 100 µM (inactive) | – | > 100 µM (inactive) | > 100 | 49.5 µM (inactive) | > 100 µM (inactive) | > 100 µM (inactive) | > 100 µM (inactive) | > 100 µM (inactive) | > 100 µM (inactive) | > 100 µM (inactive) | > 100 µM (inactive) | > 85.9 µM (inactive) | > 100 µM (inactive) | > 71 µM (inactive) | 62.4 µM (inactive) | > 69.2 µM (inactive) | –
O=S(=O)(O)c1ccc(/N=N/c2ccc(/N=N/c3c(O)ccc4ccccc34)cc2)cc1 | – | > 100 µM (inactive) | > 100 µM (inactive) | > 100 µM (inactive) | > 100 | 38.6 µM (inactive) | > 100 µM (inactive) | 35.6 µM (inactive) | > 100 µM (inactive) | > 100 µM (inactive) | > 100 µM (inactive) | > 100 µM (inactive) | > 100 µM (inactive) | > 100 µM (inactive) | > 100 µM (inactive) | 4.76 µM (inactive) | > 100 µM (inactive) | > 94.2 µM (inactive) | > 100 µM (inactive)
CCOC(=O)CC1(Cc2ccc(OCc3ccccc3)cc2)C(=O)OC(c2ccccc2)N1C(=O)c1ccccc1 (centres undefined) | – | > 100 µM (inactive) | > 100 µM (inactive) | > 100 µM (inactive) | > 100 | > 100 µM (inactive) | > 100 µM (inactive) | > 100 µM (inactive) | 21.5 µM (inactive) | > 100 µM (inactive) | > 100 µM (inactive) | > 100 µM (inactive) | > 100 µM (inactive) | > 100 µM (inactive) | > 100 µM (inactive) | > 100 µM (inactive) | > 100 µM (inactive) | > 100 µM (inactive) | 28 µM (inactive)
CC1C(c2ccc3c(c2)OCO3)c2cc3c(cc2OC1N1CCCCC1)OCO3 (centres undefined) | – | > 100 µM (inactive) | 23.4 µM (inactive) | 36.5 µM (inactive) | 50.4 | 56.6 µM (inactive) | 82.2 µM (inactive) | – | 77.8 µM (inactive) | – | > 100 µM (inactive) | 37.5 µM (inactive) | 47.9 µM (inactive) | > 100 µM (inactive) | 30.6 µM (inactive) | 37.8 µM (inactive) | 88.9 µM (inactive) | 60.8 µM (inactive) | 20 µM (inactive)
CCCCCCCCCCCCOC1C(COCCN2CCCC2)OC2OC(C)(C)OC21 (centres undefined) | 14 µM (inactive) | 4.42 µM (inactive) | 1.6 µM (inactive) | 1.82 µM (inactive) | 1.76 | 1.72 µM (inactive) | 1.4 µM (inactive) | 1.92 µM (inactive) | – | 2.03 µM (inactive) | 1.51 µM (inactive) | 1.65 µM (inactive) | 2.52 µM (inactive) | 2 µM (inactive) | 1.86 µM (inactive) | 1.14 µM (inactive) | 1.91 µM (inactive) | 1.72 µM (inactive) | –
Cc1nn(-c2ccccc2)c2c1C(c1cc3ccccc3nc1Cl)NC(=S)N2 (centres undefined) | 71 µM (inactive) | > 100 µM (inactive) | 59.4 µM (inactive) | > 100 µM (inactive) | 31.8 | 12 µM (inactive) | 22.6 µM (inactive) | > 100 µM (inactive) | > 100 µM (inactive) | 65.3 µM (inactive) | > 100 µM (inactive) | 67.1 µM (inactive) | 20.7 µM (inactive) | 34.8 µM (inactive) | 43.4 µM (inactive) | 44.6 µM (inactive) | 76.7 µM (inactive) | 67.3 µM (inactive) | –
CN(C)CCCN1c2ccc([N+](=O)[O-])cc2CCc2cccc([N+](=O)[O-])c21 | – | 16 µM (inactive) | – | 12.8 µM (inactive) | 15.5 | 14.9 µM (inactive) | 16.5 µM (inactive) | 14.1 µM (inactive) | 15.5 µM (inactive) | 0.57 µM (active) | 13 µM (inactive) | 16.7 µM (inactive) | 26.1 µM (inactive) | 15.5 µM (inactive) | 15 µM (inactive) | 35.2 µM (inactive) | 3.37 µM (inactive) | 15.9 µM (inactive) | 13.5 µM (inactive)
O=C1NC(S(=O)(=O)O)=NNC12c1ccccc1-c1ccccc12 | – | > 10 µM (inactive) | > 10 µM (inactive) | > 10 µM (inactive) | > 10 | > 10 µM (inactive) | > 10 µM (inactive) | > 10 µM (inactive) | > 10 µM (inactive) | > 10 µM (inactive) | – | > 10 µM (inactive) | > 10 µM (inactive) | > 10 µM (inactive) | > 10 µM (inactive) | > 10 µM (inactive) | > 10 µM (inactive) | > 10 µM (inactive) | > 10 µM (inactive)
N[C@H]1CCN(c2c(F)cc3c(=O)c(C(=O)O)cn4c3c2Oc2c-4ccc3c2ccc2ccccc23)C1 | 10.4 µM (inactive) | 1.12 µM (inactive) | 2.79 µM (inactive) | 1.13 µM (inactive) | 0.364 | 0.284 µM (active) | 0.56 µM (active) | 16.9 µM (inactive) | 0.115 µM (active) | 0.535 µM (active) | 1.58 µM (inactive) | 0.935 µM (active) | 0.226 µM (active) | 0.288 µM (active) | 1.48 µM (inactive) | 0.0532 µM (active) | 5.68 µM (inactive) | 1.22 µM (inactive) | –
Cc1ccc(S(=O)(=O)Nc2ccccc2C=O)cc1 | 30 µM (inactive) | 27.1 µM (inactive) | 23.9 µM (inactive) | 16.9 µM (inactive) | 7.4 | 17.4 µM (inactive) | 13.8 µM (inactive) | 14.7 µM (inactive) | 19.8 µM (inactive) | 16.4 µM (inactive) | 25.1 µM (inactive) | 11.4 µM (inactive) | 5.62 µM (inactive) | – | 18.9 µM (inactive) | 18.2 µM (inactive) | 12.5 µM (inactive) | 14.7 µM (inactive) | –
CC(C)(C)OC(=O)NNC(=O)C1Cc2ccccc2OC1=O (centres undefined) | – | > 100 µM (inactive) | > 100 µM (inactive) | – | > 100 | > 100 µM (inactive) | – | > 100 µM (inactive) | > 100 µM (inactive) | – | > 100 µM (inactive) | > 100 µM (inactive) | > 100 µM (inactive) | > 100 µM (inactive) | > 100 µM (inactive) | > 100 µM (inactive) | > 100 µM (inactive) | > 100 µM (inactive) | > 100 µM (inactive)
COc1ccc(N(CN2C(=O)CCC2OC)C(C)=O)cc1 (centres undefined) | > 100 µM (inactive) | > 100 µM (inactive) | > 100 µM (inactive) | > 100 µM (inactive) | > 100 | > 100 µM (inactive) | > 100 µM (inactive) | > 100 µM (inactive) | > 100 µM (inactive) | > 100 µM (inactive) | > 100 µM (inactive) | > 100 µM (inactive) | > 100 µM (inactive) | > 100 µM (inactive) | > 100 µM (inactive) | > 100 µM (inactive) | > 100 µM (inactive) | > 100 µM (inactive) | –
N=C(N)n1nc2c(c1O)CCC2 | – | > 100 µM (inactive) | > 100 µM (inactive) | > 100 µM (inactive) | > 100 | > 100 µM (inactive) | > 100 µM (inactive) | > 100 µM (inactive) | > 100 µM (inactive) | > 100 µM (inactive) | > 100 µM (inactive) | > 100 µM (inactive) | – | > 100 µM (inactive) | > 100 µM (inactive) | < 0.01 µM (active) | > 100 µM (inactive) | > 100 µM (inactive) | > 100 µM (inactive)
NC(=O)NCCCC(NC(=O)OCCCCn1ccc(=O)[nH]c1=O)C(=O)O (centres undefined) | – | > 100 µM (inactive) | > 100 µM (inactive) | > 100 µM (inactive) | > 100 | > 100 µM (inactive) | > 100 µM (inactive) | – | > 100 µM (inactive) | > 100 µM (inactive) | > 100 µM (inactive) | > 100 µM (inactive) | > 100 µM (inactive) | > 100 µM (inactive) | > 100 µM (inactive) | > 100 µM (inactive) | > 100 µM (inactive) | > 100 µM (inactive) | > 100 µM (inactive)
O=C(O)CCCCC1CCSS1 (stereo not drawn) [LIPOIC ACID, ALPHA] | – | > 100 µM (inactive) | > 100 µM (inactive) | > 100 µM (inactive) | > 100 | > 100 µM (inactive) | > 100 µM (inactive) | 43.1 µM (inactive) | > 100 µM (inactive) | > 100 µM (inactive) | > 100 µM (inactive) | > 100 µM (inactive) | > 100 µM (inactive) | > 100 µM (inactive) | > 100 µM (inactive) | > 100 µM (inactive) | – | > 100 µM (inactive) | 72.6 µM (inactive)
CSCCCN(CCCSC)CCCSC | – | > 100 µM (inactive) | – | > 100 µM (inactive) | > 100 | > 100 µM (inactive) | > 100 µM (inactive) | – | > 100 µM (inactive) | > 100 µM (inactive) | > 100 µM (inactive) | > 100 µM (inactive) | – | > 100 µM (inactive) | > 100 µM (inactive) | 10.6 µM (inactive) | 97.5 µM (inactive) | > 100 µM (inactive) | > 100 µM (inactive)
